In patent US20150276751A1, “REAGENT FOR IMAGING INTRACELLULAR ACETYLATION” (JAPAN SCIENCE AND TECHNOLOGY AGENCY, priority 2012, published 2015):

Legend:
[1] = Absorption and fluorescence properties of the rhodamine derivative before and after acetylation; assay type: physicochemical; conditions: for fluorescence maximum: excitation at 550 nm; for absorption maximum / molar absorption coefficient ε at absorption maximum: in PBS (medium given for compound 3); for fluorescence quantum yield: in PBS, rhodamine B as control
Description: The compound 3 (RH—NH2) obtained had the absorption maximum (ε=71400 M^−1cm^−1) at 546 nm in PBS, fluorescence maximum at 570 nm with excitation at 550 nm, and fluorescence quantum yield of 4.9×10^−4 as measured in PBS using rhodamine B as a control. The acetylated compound 4 (RH—NHAc) had the absorption maximum (ε=35500 M^−1cm^−1) at 553 nm, fluorescence maximum at 572 nm with excitation at 550 nm, and fluorescence quantum yield of 0.12.

[2] = Acetylation of compound 3 by compound 6 (acetyl-CoA analogue) with tributylphosphine in PBS; conditions: compound 3 1 μM, tributylphosphine 10 mM, PBS pH 7.4, 1% DMSO, 25° C., ex 550 nm, em 575 nm
Procedure: The compound 3 (1 μM) was mixed with tributylphosphine (10 mM) as the acylation catalyst or acylation reaction-promoting agent, the compound 6 was added 1 minute afterward, and advance of the acetylation was measured over time at 25° C. in PBS (pH 7.4, 1% DMSO) in the same manner as that of Example 2. Fluorescence of 575 nm was measured with excitation at 550 nm. […] Correlation was observed between the fluorescence intensity and the concentration of the acetylating agent 1 minute after the addition of the acetylating agent (FIG. 2).

HeLa cells [3] = assay: Staining and mitochondrial localization in HeLa cells (double staining with TagCFP-Mito); assay type: cell-based
Procedure: In order to visualize an intracellular acetylation, the following experiment was conducted by using the compound 3 as the rhodamine derivative. It is known that a positively charged rhodamine derivative structure such as tetramethylrhodamine migrates into cells and localizes in mitochondria (J. Circ. Res., 95, pp. 239-252, 2004; J. Biol. Chem., 264, pp. 8171-8178, 1989; Plos. One., 6, e23684, 2011; as especially for localization of 5-aminorhodamine derivatives in mitochondria, see, GB2283744 and U.S. Pat. No. 5,686,261). The compound 3 (10 μM) was allowed to act on the HeLa cells at 37° C. for 30 minutes in the Hanks' balanced salt solution (HBSS, 137 mM NaCl, 5.4 mM KCl, 1.3 mM CaCl2, 0.5 mM MgCl2, 0.4 mM MgSO4, 0.3 mM Na2HPO4, 0.4 mM KH2PO4, 4.2 mM NaHCO3, 5.6 mM D-glucose, 5 mM HEPES, adjusted to pH 7.4 with NaOH), the cells were washed twice with HBSS, and then fluorescence was measured.
The localization in the mitochondria of the HeLa cells was visualized by expression of TagCFP-Mito, which is a cyan fluorescent protein, and thereby confirmed. The HeLa cells were transfected with the pTagCFP-Mito vector (Evrogen) using Lipofectamine LTX (Invitrogen), and fluorescence was measured from 24 hours thereafter. The compound 3 was excited at 559 nm, and fluorescence of 580 to 680 nm was measured. TagCFP-Mito was excited at 440 nm, and fluorescence of 460 to 500 nm was measured. […]

HeLa cells [4] = assay: Visualization of intracellular acetylation in HeLa cells by fluorescence enhancement; assay type: cell-based
Procedure: The acylation catalyst was added at the time point of 2 minutes, and N-methoxydiacetamide (NMD, 10 mM) was added as an acetylating agent at the time point of 7 minutes. Enhancement of the fluorescence intensity (F/F0) was calculated with an excitation wavelength of 550 nm and a fluorescence wavelength of 575 nm as an average of the results obtained from five cells. […] FIGS. 4, (c), (d), and (e) show color images of the HeLa cell after 1 minute, 5 minutes, and 10 minutes, respectively.
In view of the results of the model acetylation shown in Example 3, it is considered that enhancement of the intracellular fluorescence intensity was originated in acetylation advanced by physiological acetyl-CoA in the inside of mitochondria. […] Therefore, advance of the intracellular acetylation was successfully visualized by the compound 3 together with the physiological acetyl-CoA and the additionally added acetylating agent. It is known that the acetyl-CoA concentration in mitochondria is higher than the average intracellular acetyl-CoA concentration (J. Gen., Microbiol., 134, pp. 2249-2253, 1988), and the aforementioned results are consistent with this finding.

[5] = Acetylation of compound 3 by N-methoxydiacetamide in PBS with acylation catalyst, fluorescence change over time; conditions: for increase in fluorescence intensity over time vs. no catalyst: PBS pH 7.4, 1% DMSO, 25° C.
Procedure: The compound 3 (1 μM) and an acylation catalyst or acylation reaction-promoting agent (10 mM) were dissolved in PBS (pH 7.4, containing 1% DMSO), N-methoxydiacetamide (NMD, 0.1M) was added as an acetylating agent 1 minute afterward, and change of fluorescence was measured over time at 25° C.

[6] = compound 3 1 μM, catalyst 10 mM, NMD 0.1M

CN(C)c1ccc2c(-c3ccc(N)cc3)c3ccc(=[N+](C)C)cc-3oc2c1.O=C([O-])C(F)(F)F [compound 3, N-(9-(4-Aminophenyl)-6-(dimethylamino)-3H-xanthen-3-ylidene)-N-methylmethanaminium trifluoroacetate]
fluorescence maximum [1]: 570 nm | absorption maximum [1]: 546 nm | molar absorption coefficient ε at absorption maximum [1]: 71400 M⁻¹ cm⁻¹ | fluorescence quantum yield [1]: 4.9×10^−4 | increase of fluorescence on acetylation with compound 6 [2]: Rapid increase of fluorescence was obtained | intracellular localization (staining image) (HeLa cells [3]; 10 μM, 37° C., 30 minutes, HBSS): localization of the compound in the mitochondria | consistency of fluorescence image with TagCFP-Mito image (HeLa cells [3]; ex 559 nm, em 580 to 680 nm, HeLa cells transfected with pTagCFP-Mito): well consistent with the fluorescence image of the cyan fluorescence protein expressed in the mitochondria | enhancement of fluorescence intensity over time, no catalyst (HeLa cells [4]; 37° C., absence of acylation catalyst or reaction-promoting agent): enhancement of fluorescence intensity was not observed | fluorescence intensity after further adding N-methoxydiacetamide (HeLa cells [4]; NMD 10 mM added at 7 minutes, after tributylphosphine 5 mM): the fluorescence intensity was further enhanced | enhancement of intracellular fluorescence intensity with tributylphosphine (HeLa cells [4]; compound 3 10 μM, tributylphosphine 5 mM added to medium, 37° C.): enhancement of intracellular fluorescence intensity was observed

CC(=O)Nc1ccc(-c2c3ccc(=[N+](C)C)cc-3oc3cc(N(C)C)ccc23)cc1.CC(=O)[O-] [compound 4, N-(9-(4-Acetamidophenyl)-6-(dimethylamino)-3H-xanthen-3-ylidene)-N-methylmethanaminium acetate]
fluorescence maximum [1]: 572 nm | absorption maximum [1]: 553 nm | molar absorption coefficient ε at absorption maximum [1]: 35500 M⁻¹ cm⁻¹ | fluorescence quantum yield [1]: 0.12

CN(C)c1ccncc1 [dimethylaminopyridine]
increase in fluorescence intensity over time vs. no catalyst [5, 6]: larger increase in fluorescence intensity was observed over time

CCCCP(CCCC)CCCC [tributylphosphine]
fluorescence intensity relative to that without addition of catalyst ([5]; 5 minutes after addition, compound 3 1 μM, catalyst 10 mM, NMD 0.1M, PBS pH 7.4, 25° C.): about 5 times | increase in reaction rate relative to reaction without catalyst ([5]; compared with rate at start of reaction without catalyst): about 5.5 times | increase in fluorescence intensity over time vs. no catalyst [5, 6]: larger increase in fluorescence intensity was observed over time
